Measured values from ChEMBL document CHEMBL5528085, “Subtle Structural Changes across the Boundary between A2AR/A2BR Dual Antagonism and A2BR Antagonism: A Novel Class of 2-Aminopyrimidine-Based Derivatives” (J Med Chem, 2024).
The source made the active and inactive calls. The rule behind the calls is not given here.

Tests used:
[1] = target: T1, Adenosine receptor A2a (Homo sapiens, UniProt P29274); assay: Antagonist activity at human adenosine 2A receptor overexpressed in HEK293 cells preincubated for 0.5 hrs followed by NECA stimulation by GloSensor cAMP assay; assay type: functional, cell-based
T1 sequence (P29274 whole entry): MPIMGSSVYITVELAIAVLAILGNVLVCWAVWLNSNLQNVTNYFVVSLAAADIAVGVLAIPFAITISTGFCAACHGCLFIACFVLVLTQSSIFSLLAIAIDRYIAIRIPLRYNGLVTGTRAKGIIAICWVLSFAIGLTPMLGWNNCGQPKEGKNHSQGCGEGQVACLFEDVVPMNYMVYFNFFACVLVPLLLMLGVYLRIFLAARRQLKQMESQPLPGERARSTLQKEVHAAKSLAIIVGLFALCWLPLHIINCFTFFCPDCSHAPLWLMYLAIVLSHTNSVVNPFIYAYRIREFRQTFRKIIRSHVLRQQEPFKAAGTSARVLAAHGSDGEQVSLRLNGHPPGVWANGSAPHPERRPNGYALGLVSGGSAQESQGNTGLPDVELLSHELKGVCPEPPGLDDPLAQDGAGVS

[2] = target: T2, Adenosine receptor A2b (Homo sapiens, UniProt P29275); assay: Antagonist activity at human adenosine 2B receptor overexpressed in HEK293 cells preincubated for 0.5 hrs followed by NECA stimulation by GloSensor cAMP assay; assay type: functional, cell-based
T2 sequence (P29275 whole entry): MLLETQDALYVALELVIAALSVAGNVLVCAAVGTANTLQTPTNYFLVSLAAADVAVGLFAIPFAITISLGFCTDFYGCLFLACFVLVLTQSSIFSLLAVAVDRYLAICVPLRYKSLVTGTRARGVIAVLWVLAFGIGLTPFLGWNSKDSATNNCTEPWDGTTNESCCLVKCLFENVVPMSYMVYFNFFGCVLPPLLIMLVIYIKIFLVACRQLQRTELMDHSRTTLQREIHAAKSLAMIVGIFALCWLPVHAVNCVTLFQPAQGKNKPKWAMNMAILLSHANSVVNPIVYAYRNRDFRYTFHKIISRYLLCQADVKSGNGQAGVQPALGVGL

[3] = species: Homo sapiens; assay: Selectivity ratio of IC50 for antagonist activity at human adenosine 2A receptor overexpressed in HEK293 cells to IC50 for antagonist activity at human adenosine 2B receptor overexpressed in HEK293 cells; assay type: cell-based
[4] = target: T3, Adenosine receptor A1 (Homo sapiens, UniProt P30542); assay: Antagonist activity at human Adenosine A1 receptor overexpressed in HEK293 cells preincubated for 0.5 hrs followed by NECA stimulation by GloSensor cAMP assay; assay type: functional, cell-based
T3 sequence (P30542 whole entry): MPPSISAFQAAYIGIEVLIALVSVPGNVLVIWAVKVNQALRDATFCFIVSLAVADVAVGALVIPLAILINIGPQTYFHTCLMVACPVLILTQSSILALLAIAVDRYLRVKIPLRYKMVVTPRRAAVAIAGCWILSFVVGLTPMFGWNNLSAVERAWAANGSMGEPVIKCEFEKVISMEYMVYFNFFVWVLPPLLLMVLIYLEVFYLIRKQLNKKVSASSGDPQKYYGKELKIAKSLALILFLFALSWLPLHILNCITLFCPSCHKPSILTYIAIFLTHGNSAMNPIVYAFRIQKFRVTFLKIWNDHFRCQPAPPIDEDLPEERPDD

[5] = target: T4, Adenosine receptor A3 (Homo sapiens, UniProt P0DMS8); assay: Antagonist activity at human Adenosine A3 receptor overexpressed in HEK293 cells preincubated for 0.5 hrs followed by NECA stimulation by GloSensor cAMP assay; assay type: functional, cell-based
T4 sequence (P0DMS8 whole entry): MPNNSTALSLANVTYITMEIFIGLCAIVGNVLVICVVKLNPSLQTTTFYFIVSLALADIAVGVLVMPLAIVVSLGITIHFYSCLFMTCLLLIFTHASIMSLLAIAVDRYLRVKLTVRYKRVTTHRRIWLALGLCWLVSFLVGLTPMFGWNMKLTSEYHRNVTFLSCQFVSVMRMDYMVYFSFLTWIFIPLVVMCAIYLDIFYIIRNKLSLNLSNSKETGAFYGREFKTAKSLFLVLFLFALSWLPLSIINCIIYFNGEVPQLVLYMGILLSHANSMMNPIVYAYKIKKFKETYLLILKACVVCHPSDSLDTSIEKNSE

[6] = target: T1, Adenosine receptor A2a; assay: (§1) Antagonist activity at human adenosine 2A receptor expressed in HEK293 cells co-expressing CRE-luciferase plasmid assessed as inhibition of NECA-stimulated luciferase expression preincubated with compound for 0.5 hrs followed by NECA stimulation and measured after 4 hrs by luciferase based CRE reporter assay; assay type: functional, cell-based
[7] = target: T2, Adenosine receptor A2b; assay: as §1, with “2B” for “2A”; assay type: functional, cell-based
[8] = target: T1, Adenosine receptor A2a; assay: Antagonist activity at human adenosine 2A receptor overexpressed in HEK293 cells preincubated for 0.5 hrs followed by NECA stimulation by Schild plot based GloSensor cAMP assay; assay type: functional, cell-based; details: read-out: pA2 (converted)
[9] = target: T2, Adenosine receptor A2b; assay: Antagonist activity at human adenosine 2B receptor overexpressed in HEK293 cells preincubated for 0.5 hrs followed by NECA stimulation by Schild plot based GloSensor cAMP assay; assay type: functional, cell-based; details: read-out: pA2 (converted)
[10] = Downregulation of NECA-induced PD-1 expression in human Jurkat T cells at 0.1 to 10 uM incubated for 5 hrs in presence of PMA and ionomycin by q-PCR analysis; assay type: functional; details: dose 0.1-10 µM
[11] = Downregulation of NECA-induced TIM-3 expression in human Jurkat T cells at 0.1 to 10 uM incubated for 5 hrs in presence of PMA and ionomycin by q-PCR analysis; assay type: functional; details: dose 0.1-10 µM
[12] = test system: MC38-OVA; assay: Induction of T-cell mediated cell death in mouse MC38-OVA cells co-cultured with OT-1 CTL assessed as reversal of NECA-induced impairment in OT-I CTL mediated cell killing at 10 uM incubated for 48 hrs by calcein AM dye based fluorescence microscopic analysis; assay type: functional
[13] = target: T1, Adenosine receptor A2a; assay: Antagonist activity at adenosine 2A receptor (unknown origin)
[14] = target: T2, Adenosine receptor A2b; assay: Antagonist activity at adenosine 2B receptor (unknown origin); assay type: functional

Row | IC50 [1] [nM] | IC50 [2] [nM] | Structure (SMILES) | Ratio IC50 [3] | also measured
1 | 112 | 43.8 | Cc1c(C#N)cccc1-c1cc(-c2cn(Cc3c[nH]c4ccccc34)nn2)nc(N)n1 | 2.6 | 
2 | 103 | 43.4 | Cc1ccc2[nH]cc(Cn3cc(-c4cc(-c5cccc(C#N)c5C)nc(N)n4)nn3)c2c1 | 2.4 | 
3 | 133 | 27.6 | COc1ccc2c(Cn3cc(-c4cc(-c5cccc(C#N)c5C)nc(N)n4)nn3)c[nH]c2c1 | 4.8 | 
4 | 11.2 | 6.4 | Cc1c(C#N)cccc1-c1cc(-c2cn(Cc3c[nH]c4ccc(C#N)cc34)nn2)nc(N)n1 | 1.8 | IC50 [4]: > 1000 nM; IC50 [5]: > 1000 nM; IC50 [6]: 7.3 nM; IC50 [7]: 8.1 nM; Kb [8]: 1.62 nM; Kb [9]: 1.32 nM; Activity [10]: ~100%; Activity [11]: ~100%; Activity [12]: Active
5 | 120 | 13.7 | Cc1c(C#N)cccc1-c1cc(-c2cn(Cc3c[nH]c4cc(F)ccc34)nn2)nc(N)n1 | 8.8 | 
6 | > 100000 | 97.7 | COC(=O)c1ccc2c(Cn3cc(-c4cc(-c5cccc(C#N)c5C)nc(N)n4)nn3)c[nH]c2c1 |  | 
7 | 69.9 | 103 | Cc1c(C#N)cccc1-c1cc(-c2cn(Cc3c[nH]c4ccc(OC(C)C)cc34)nn2)nc(N)n1 | 0.7 | 
8 | > 100000 | > 100000 | Cc1c(C#N)cccc1-c1cc(-c2cn(Cc3cnc4ccccn34)nn2)nc(N)n1 |  | 
9 | 3850 | 30.6 | Cc1c(C#N)cccc1-c1cc(-c2cn(Cc3c[nH]c4cc(OC(C)C)ccc34)nn2)nc(N)n1 | 126 | 
10 |  |  | COc1ncc(C2=CCOCC2)c2sc(NC(=O)N3CC[C@@]4(CCCOC4)C3)nc12 [MUVADENANT] |  | IC50 [13]: < 10 nM; IC50 [14]: < 10 nM
11 | 11.6 | 101 | Cc1c(C#N)cccc1-c1cc(-c2cn(Cc3csc4c3CCCC4)nn2)nc(N)n1 | 0.1 | 
12 | 1010 | 43.1 | Cc1c(C#N)cccc1-c1cc(-c2cn(Cc3ccc4[nH]ccc4c3)nn2)nc(N)n1 | 23.5 | 
13 | 5820 | > 100000 | Cc1c(C#N)cccc1-c1cc(-c2cn(Cc3cccc4[nH]ccc34)nn2)nc(N)n1 |  | 
14 | 7860 | > 100000 | Cc1c(C#N)cccc1-c1cc(-c2cn(Cc3cccc4cc[nH]c34)nn2)nc(N)n1 |  | 
15 | 97.4 | 349 | Cc1c(C#N)cccc1-c1cc(-c2cn(Cc3c[nH]c4ccc(OC5CCCC5)cc34)nn2)nc(N)n1 | 0.3 | 
16 | 427 | 134 | Cc1c(C#N)cccc1-c1cc(-c2cn(Cc3ccc4cc[nH]c4c3)nn2)nc(N)n1 | 3.2 | 
17 |  | 71.6 | Cc1c(C#N)cccc1-c1cc(-c2cn(Cc3c[nH]c4cc(OC5CCCC5)ccc34)nn2)nc(N)n1 |  | 
18 | 6320 | 209 | Cc1c(C#N)cccc1-c1cc(-c2cn(Cc3c[nH]c4cc(Cl)c(Cl)cc34)nn2)nc(N)n1 | 30.2 | 
19 | 18.3 | 9.7 | Cc1c(C#N)cccc1-c1cc(-c2cn(Cc3c[nH]c4ccc(S(C)(=O)=O)cc34)nn2)nc(N)n1 | 1.9 | 

Row | IC50 [1] [nM] | IC50 [2] [nM] | Structure (SMILES) | Ratio IC50 [3] | also measured
20 | 1140 | 1080 | Cc1c(C#N)cccc1-c1cc(-c2cn(Cc3c[nH]c4c(Cl)cccc34)nn2)nc(N)n1 | 1.1 | 
21 | 2260 | 215 | Cc1c(C#N)cccc1-c1cc(-c2cn(Cc3c[nH]c4ncccc34)nn2)nc(N)n1 | 10.5 | 
22 | 324 | 48.6 | Cc1ccc2c(Cn3cc(-c4cc(-c5cccc(C#N)c5C)nc(N)n4)nn3)c[nH]c2c1 | 6.7 | 
23 | 242 | 2.6 | Cc1c(C#N)cccc1-c1cc(-c2cn(Cc3c[nH]c4cc(C#N)ccc34)nn2)nc(N)n1 | 93.2 | 
24 | 431 | 3.4 | Cc1c(C#N)cccc1-c1cc(-c2cn(Cc3c[nH]c4cc(S(C)(=O)=O)ccc34)nn2)nc(N)n1 | 127 | 
25 | 753 | 55.8 | Cc1c(C#N)cccc1-c1cc(-c2cn(Cc3c[nH]c4cc(Cl)ccc34)nn2)nc(N)n1 | 13.5 | 
26 | 129 | 41.7 | Cc1c(C#N)cccc1-c1cc(-c2cn(Cc3n[nH]c4ccccc34)nn2)nc(N)n1 | 3.1 | 
27 | 63.3 | 14.3 | Cc1c(C#N)cccc1-c1cc(-c2cn(Cc3c[nH]c4ccc(F)cc34)nn2)nc(N)n1 | 4.4 | 
28 | 169 | 11.6 | Cc1c(C#N)cccc1-c1cc(-c2cn(Cc3c[nH]c4ccncc34)nn2)nc(N)n1 | 14.6 | 
29 |  | 44.7 | COc1ccc2[nH]cc(Cn3cc(-c4cc(-c5cccc(C#N)c5C)nc(N)n4)nn3)c2c1 |  | 
30 |  | 654 | Cc1c(C#N)cccc1-c1cc(-c2cn(Cc3cc4ccccc4[nH]3)nn2)nc(N)n1 |  | 
31 | > 100000 | > 100000 | Cc1c(C#N)cccc1-c1cc(-c2cn(Cc3cn(C)c4ccccc34)nn2)nc(N)n1 |  | 
32 |  | 3.6 | Cc1c(C#N)cccc1-c1cc(-c2cn(Cc3c[nH]c4cccnc34)nn2)nc(N)n1 |  | 
33 | 172 | 316 | Cc1c(C#N)cccc1-c1cc(-c2cn(Cc3c[nH]c4cccc(Cl)c34)nn2)nc(N)n1 | 0.5 | 
34 | 1910 | 11.1 | Cc1c(C#N)cccc1-c1cc(-c2cn(Cc3c[nH]c4cnccc34)nn2)nc(N)n1 | 172 | 
35 | 34.8 | 131 | Cc1c(C#N)cccc1-c1cc(-c2cn(Cc3csc4ccccc34)nn2)nc(N)n1 | 0.3 | 
36 | 7.5 | 31.4 | Cc1c(C#N)cccc1-c1cc(-c2cn(Cc3cccc(C(C)(C)O)n3)nn2)nc(N)n1 [ETRUMADENANT] | 0.2 | Ki [13]: 0.851 nM; Ki [14]: 3.16 nM; IC50 [4]: 87.3 nM
37 | 70.2 | 38.2 | COC(=O)c1ccc2[nH]cc(Cn3cc(-c4cc(-c5cccc(C#N)c5C)nc(N)n4)nn3)c2c1 | 1.8 | 
38 | 244 | 45.4 | Cc1c(C#N)cccc1-c1cc(-c2cn(Cc3c[nH]c4ccc(Cl)cc34)nn2)nc(N)n1 | 5.4 | 
